Earlier results, collected in PubChem BioAssay AID1259409 (Chemical Carcinogenesis Research Information System (CCRIS), 2018).
Where “and” joins values, the source holds several entries; their conditions need not be identical. Equal values may be shown once.

Test system: rodent chemically induced tumor inhibition, incidence and multiplicity
Experiment: CCRIS tumor inhibitor studies
Conditions: 3817-11-6, Dose [Inhibitor]: 0, Promoter: NONE USED

## CC[C@H](C)[C@@H](NC(=O)[C@@H](CCC(=O)O)NC(=O)[C@@H](CO)NC(=O)[C@@H](CO)NC(=O)[C@H](NC(=O)[C@@H](CC(=O)O)NC(=O)[C@H](NC(=O)[C@H](C)NC(=O)[C@H](C)NC(=O)[C@@H](CC(=O)O)NC(=O)[C@@H](CO)NC(=O)[C@H](N)CS)C(C)C)C(C)C)C(=O)N[C@@H](C(=O)N[C@@H](C(=O)N[C@H](CCCCN)C(=O)N[C@H](CC(=O)O)C(=O)N[C@H](CC(C)C)C(=O)N[C@H](CCCCN)C(=O)N[C@H](CCC(=O)O)C(=O)N[C@H](CCCCN)C(=O)N[C@H](CCCCN)C(=O)N[C@H](CCC(=O)O)C(=O)N[C@@H](C(=O)N[C@@H](C(=O)N[C@H](CCC(=O)O)C(=O)N[C@H](CCC(=O)O)C(=O)N[C@@H](C)C(=O)N[C@H](CCC(=O)O)C(=O)O)C(C)C)C(C)C)C(C)C)[C@H](C)O
Carcinogen: N-BUTYL-N-(4-HYDROXYBUTYL)NITROSAMINE, 30 UG THYMOSIN FRACTION 5 IN 100 µL SALINE INJECTED INTO RIGHT THIGH 2/WK FOR 20 WK (STUDY DURATION: 20 WK), Route [Inhibitor]: INTRAMUSCULAR, Species: MOUSE, Strain/Sex: C3H/HEJ/FEMALE, Target Tissue: Type of Lesion: BLADDER: CARCINOMA, Dose [Carcinogen]: 0.05% (W/V) SOLUTION IN DRINKING WATER WITH 0.001% (W/V) TWEEN 80 FOR 20 WK
  tumour outcome (control, treated, inhibition, significance): 6/11 (55%), 2/11 (18%), 67%, not significant
Carcinogen: N-BUTYL-N-(4-HYDROXYBUTYL)NITROSAMINE, 30 UG THYMOSIN FRACTION 5 IN 100 µL SALINE INJECTED INTO RIGHT THIGH 2/WK FOR 25 WK (STUDY DURATION: 25 WK), Route [Inhibitor]: INTRAMUSCULAR, Species: MOUSE, Strain/Sex: C3H/HEJ/FEMALE, Target Tissue: Type of Lesion: BLADDER: CARCINOMA, Dose [Carcinogen]: 0.05% (W/V) SOLUTION IN DRINKING WATER WITH 0.001% (W/V) TWEEN 80 FOR 25 WK
  tumour outcome (control, treated, inhibition, significance): 9/16 (56%), 8/13 (62%), -11%, not significant
Carcinogen: N-BUTYL-N-(4-HYDROXYBUTYL)NITROSAMINE, 600 UG THYMOSIN FRACTION 5 2/WK FOR 12 WK BEGINNING POST CARCINOGEN TREATMENT (STUDY DURATION: 20 WK), Route [Inhibitor]: SUBCUTANEOUS, Species: MOUSE, Strain/Sex: NON/SHI/MALE, Target Tissue: Type of Lesion: RENAL PELVIS: CARCINOMA, Dose [Carcinogen]: 0.05% IN DRINKING WATER FOR 8 WK
  tumour outcome (control, treated, inhibition, significance): 3/31 (10%), 5/32 (16%), -60%, not significant and 7/29 (24%), 7/29 (24%), 0%, not significant
Carcinogen: N-BUTYL-N-(4-HYDROXYBUTYL)NITROSAMINE, 600 UG THYMOSIN FRACTION 5 2/WK FOR 12 WK BEGINNING POST CARCINOGEN TREATMENT (STUDY DURATION: 20 WK), Route [Inhibitor]: SUBCUTANEOUS, Species: MOUSE, Strain/Sex: NON/SHI/MALE, Target Tissue: Type of Lesion: URINARY BLADDER: CARCINOMA, Dose [Carcinogen]: 0.05% IN DRINKING WATER FOR 8 WK
  tumour outcome (control, treated, inhibition, significance): 25/31 (81%), 15/32 (47%), 42%, p<0.01 and 19/29 (66%), 23/29 (79%), -20%, not significant
Carcinogen: N-BUTYL-N-(4-HYDROXYBUTYL)NITROSAMINE, 600 UG THYMOSIN FRACTION 5 IN 100 µL SALINE INJECTED INTO RIGHT THIGH 2/WK FOR 30 WK (STUDY DURATION: 30 WK), Route [Inhibitor]: INTRAMUSCULAR, Species: RAT, Strain/Sex: WISTAR/FEMALE, Target Tissue: Type of Lesion: BLADDER: CARCINOMA, Dose [Carcinogen]: 0.025% (W/V) SOLUTION IN DRINKING WATER WITH 0.0005% (W/V) TWEEN 80 FOR 30 WK
  tumour outcome (control, treated, inhibition, significance): 9/11 (82%), 2/11 (18%), 78%, p<0.05
Carcinogen: PHENACETIN, 62-44-2, N-BUTYL-N-(4-HYDROXYBUTYL)NITROSAMINE, Carcinogen: PHENACETIN, 62-44-2, N-BUTYL-N-(4-HYDROXYBUTYL)NITROSAMINE, 60 UG IN 0.1 ML SALINE 2/WK FOR 6 WK CONCURRENTLY WITH BBN TREATMENT (STUDY DURATION: 30 WK), Route [Inhibitor]: SUBCUTANEOUS, Species: MOUSE, Strain/Sex: NON/SHI/MALE, Target Tissue: Type of Lesion: RENAL PELVIS: CARCINOMA, Dose [Carcinogen]: 2% PHENACETIN IN DIET FOR 8 WK FOLLOWED BY 0.05% BBN IN DRINKING WATER FOR 6 WK
  tumour outcome (control, treated, inhibition, significance): 2/11 (18%), 5/11 (45%), -150%, not significant
Carcinogen: PHENACETIN, 62-44-2, N-BUTYL-N-(4-HYDROXYBUTYL)NITROSAMINE, Carcinogen: PHENACETIN, 62-44-2, N-BUTYL-N-(4-HYDROXYBUTYL)NITROSAMINE, 60 UG IN 0.1 ML SALINE 2/WK FOR 6 WK CONCURRENTLY WITH BBN TREATMENT (STUDY DURATION: 30 WK), Route [Inhibitor]: SUBCUTANEOUS, Species: MOUSE, Strain/Sex: NON/SHI/MALE, Target Tissue: Type of Lesion: URINARY BLADDER: CARCINOMA, Dose [Carcinogen]: 2% PHENACETIN IN DIET FOR 8 WK FOLLOWED BY 0.05% BBN IN DRINKING WATER FOR 6 WK
  tumour outcome (control, treated, inhibition, significance): 2/11 (18%), 2/11 (18%), 0%, not significant
Carcinogen: PHENACETIN, 62-44-2, N-BUTYL-N-(4-HYDROXYBUTYL)NITROSAMINE, Carcinogen: PHENACETIN, 62-44-2, N-BUTYL-N-(4-HYDROXYBUTYL)NITROSAMINE, 60 UG IN 0.1 ML SALINE 2/WK FOR 6 WK CONCURRENTLY WITH BBN TREATMENT (STUDY DURATION: 34 WK), Route [Inhibitor]: SUBCUTANEOUS, Species: MOUSE, Strain/Sex: NON/SHI/MALE, Target Tissue: Type of Lesion: RENAL PELVIS: CARCINOMA, Dose [Carcinogen]: 2% PHENACETIN IN DIET FOR 12 WK FOLLOWED BY 0.05% BBN IN DRINKING WATER FOR 6 WK
  tumour outcome (control, treated, inhibition, significance): 9/20 (45%), 12/19 (63%), -40%, not significant
